biological target: T1, GCase (Homo sapiens, UniProt P04062); assay: activation of GCase in a live cell PFB assay in HELA cells; assay type: cell-based; conditions: EC50 given as range classes
T1 construct: endogenous in cells; host or cells: HeLa cells
T1 sequence (P04062 40-536): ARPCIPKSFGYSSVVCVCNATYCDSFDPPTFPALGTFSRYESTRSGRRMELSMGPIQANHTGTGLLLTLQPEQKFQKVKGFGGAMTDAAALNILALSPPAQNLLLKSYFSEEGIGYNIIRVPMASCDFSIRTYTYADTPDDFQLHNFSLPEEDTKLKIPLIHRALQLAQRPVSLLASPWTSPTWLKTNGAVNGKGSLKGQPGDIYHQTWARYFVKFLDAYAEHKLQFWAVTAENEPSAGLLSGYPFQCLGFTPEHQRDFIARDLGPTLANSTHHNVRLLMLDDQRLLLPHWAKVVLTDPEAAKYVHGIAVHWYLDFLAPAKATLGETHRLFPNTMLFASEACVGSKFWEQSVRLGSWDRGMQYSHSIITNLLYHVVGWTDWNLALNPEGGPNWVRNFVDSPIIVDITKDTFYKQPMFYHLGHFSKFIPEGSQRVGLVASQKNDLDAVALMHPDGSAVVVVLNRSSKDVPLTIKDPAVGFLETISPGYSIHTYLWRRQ
Method: Exemplary compounds were evaluated for activation of GCase in a live cell PFB assay in HELA cells (essentially as described in Ysselstein et al., “LRRK2 kinase activity regulates lysosomal glucocerebrosidase in neurons derived from Parkinson's disease patients” Nature Communications (2019) 10:5570). […] EC50 ranges: A: <10 μM; B: >10-50 μM; C: >50-100 μM; D: >100 μM.

SMILES | EC50
FC(F)Cn1ncc2ncc(NC3COC4(C3)CN(c3ccc(C(F)(F)F)nc3)C4)nc21 (stereo not drawn) [Cmpd 191] | 10 to 50 µM
FC(F)Cn1ncc2ncc(NC3CCC4(CCN(c5cc(C(F)(F)F)ccn5)C4)C3)nc21 (stereo not drawn) [Cmpd 194] | < 10 µM
FC(F)Cn1ncc2ncc(NC3CCC4(CCN(c5cc(C(F)(F)F)ccn5)CC4)C3)nc21 (stereo not drawn) [Cmpd 196] | > 100 µM
FC(F)Cn1ncc2ncc(N[C@H]3CC[C@@]4(CCN(c5cc(C(F)(F)F)ccn5)C4)CC3)nc21 [Cmpd 197] | 10 to 50 µM
FC(F)Cn1ncc2ncc(NC3CCC4(CC3)CN(c3ccc(C(F)(F)F)cn3)C4)nc21 [Cmpd 198] | 10 to 50 µM
FC(F)Cn1ncc2ncc(NC3CCC4(CC3)CN(c3cncc(C(F)(F)F)c3)C4)nc21 [Cmpd 199] | < 10 µM
O=C1N(c2ccc(C(F)(F)F)cn2)CCC12CCN(c1cnc3cnn(CC(F)F)c3n1)C2 (stereo not drawn) [Cmpd 202] | 10 to 50 µM
FC(F)Cn1ncc2ncc(N3CCC4(CC3)CN(c3ccc(C(F)(F)F)nc3)CCO4)nc21 [Cmpd 205] | < 10 µM
FC(F)Cn1ncc2ncc(N3CCC4(CC3)CN(c3cccc(C(F)(F)F)n3)CCO4)nc21 [Cmpd 208] | 10 to 50 µM
FC(F)Cn1ncc2ncc(N3CCOC4(CCN(c5ccc(C(F)(F)F)nc5)CC4)C3)nc21 [Cmpd 209] | < 10 µM
FC(F)Cn1ncc2ncc(N3CCOC4(CCN(c5cccc(C(F)(F)F)n5)CC4)C3)nc21 [Cmpd 211] | 10 to 50 µM
FC(F)Cn1ncc2ncc(N3CCC4(CCCN(c5cccc(C(F)(F)F)n5)C4)CC3)nc21 [Cmpd 216] | 10 to 50 µM
FC(F)Cn1ncc2ncc(N3CCCC4(CCN(c5ccc(C(F)(F)F)cn5)CC4)C3)nc21 [Cmpd 218] | 10 to 50 µM
FC(F)Cn1ncc2ncc(N3CCCC4(CCN(c5ccc(C(F)(F)F)nc5)CC4)C3)nc21 [Cmpd 220] | < 10 µM
FC(F)Cn1ncc2ncc(N3CCCC4(CCN(c5cncc(C(F)(F)F)c5)CC4)C3)nc21 [Cmpd 221] | 10 to 50 µM
FC(F)Cn1ncc2ncc(N3CCC4(CN(c5ccnc(C(F)(F)F)c5)C4)C3)nc21 [Cmpd 223] | < 10 µM
FC(F)Cn1ncc2ncc(N3CCC4(CCCN(c5cc(C(F)(F)F)ccn5)C4)CC3)nc21 [Cmpd 224] | 10 to 50 µM
FC(F)Cn1ncc2ncc(N3CCC4(CCCN(c5ccnc(C(F)(F)F)c5)C4)CC3)nc21 [Cmpd 225] | < 10 µM
FC(F)Cn1ncc2ncc(N3CCC4(CC3)CC(Nc3ccc(C(F)(F)F)nc3)C4)nc21 [Cmpd 230] | 10 to 50 µM
FC(F)Cn1ncc2ncc(N3CCC4(CC3)CC(Nc3cccc(C(F)(F)F)n3)C4)nc21 [Cmpd 232] | 10 to 50 µM

More lines, now with the values ahead:

EC50 | SMILES
< 10 µM | FC(F)Cn1ncc2ncc(NC3COC4(C3)CN(c3cc(C(F)(F)F)ccn3)C4)nc21 (stereo not drawn) [Cmpd 192]
10 to 50 µM | FC(F)Cn1ncc2ncc(NC3CCC4(CCN(c5ccc(C(F)(F)F)nc5)C4)C3)nc21 (stereo not drawn) [Cmpd 193]
10 to 50 µM | FC(F)Cn1ncc2ncc(NC3CCC4(CCN(c5ccc(C(F)(F)F)nc5)CC4)C3)nc21 (stereo not drawn) [Cmpd 195]
10 to 50 µM | FC(F)Cn1ncc2ncc(NC3CCC4(CC3)CN(c3ccc(C(F)(F)F)nc3)C4)nc21 [Cmpd 200]
10 to 50 µM | O=C1N(c2ccc(C(F)(F)F)nc2)CCC12CCN(c1cnc3cnn(CC(F)F)c3n1)C2 (stereo not drawn) [Cmpd 201]
10 to 50 µM | O=C1N(c2cccc(C(F)(F)F)n2)CCC12CCN(c1cnc3cnn(CC(F)F)c3n1)C2 (stereo not drawn) [Cmpd 203]
10 to 50 µM | O=C1N(c2cncc(C(F)(F)F)c2)CCC12CCN(c1cnc3cnn(CC(F)F)c3n1)C2 (stereo not drawn) [Cmpd 204]
< 10 µM | FC(F)Cn1ncc2ncc(N3CCC4(CC3)CN(c3cncc(C(F)(F)F)c3)CCO4)nc21 [Cmpd 206]
< 10 µM | FC(F)Cn1ncc2ncc(N3CCC4(CC3)CN(c3ccc(C(F)(F)F)cn3)CCO4)nc21 [Cmpd 207]
< 10 µM | FC(F)Cn1ncc2ncc(N3CCOC4(CCN(c5cncc(C(F)(F)F)c5)CC4)C3)nc21 [Cmpd 210]
10 to 50 µM | FC(F)Cn1ncc2ncc(N3CCOC4(CCN(c5ccc(C(F)(F)F)cn5)CC4)C3)nc21 [Cmpd 212]
10 to 50 µM | FC(F)Cn1ncc2ncc(N3CCC4(CCCN(c5ccc(C(F)(F)F)cn5)C4)CC3)nc21 [Cmpd 213]
10 to 50 µM | FC(F)Cn1ncc2ncc(N3CCC4(CCCN(c5ccc(C(F)(F)F)nc5)C4)CC3)nc21 [Cmpd 214]
< 10 µM | FC(F)Cn1ncc2ncc(N3CCC4(CCCN(c5cncc(C(F)(F)F)c5)C4)CC3)nc21 [Cmpd 215]
10 to 50 µM | FC(F)Cn1ncc2ncc(N3CCCC4(CCN(c5cc(C(F)(F)F)ccn5)CC4)C3)nc21 [Cmpd 217]
10 to 50 µM | FC(F)Cn1ncc2ncc(N3CCCC4(CCN(c5cccc(C(F)(F)F)n5)CC4)C3)nc21 [Cmpd 219]
10 to 50 µM | FC(F)Cn1ncc2ncc(N3CC4(CCN(c5ccnc(C(F)(F)F)c5)C4)C3)nc21 [Cmpd 222]
> 100 µM | FC(F)Cn1ncc2ncc(N3CCCC4(CCN(c5ccnc(C(F)(F)F)c5)CC4)C3)nc21 [Cmpd 226]
10 to 50 µM | FC(F)Cn1ncc2ncc(N3CCC4(CC3)CC(Nc3ccc(C(F)(F)F)cn3)C4)nc21 [Cmpd 227]
> 100 µM | FC(F)Cn1ncc2ncc(N3CCC4(CC3)CC(Nc3cncc(C(F)(F)F)c3)C4)nc21 [Cmpd 228]
10 to 50 µM | FC(F)Cn1ncc2ncc(N3CCC4(CC3)CC(Nc3ccnc(C(F)(F)F)c3)C4)nc21 [Cmpd 229]
10 to 50 µM | FC(F)Cn1ncc2ncc(N3CCC4(CC3)CC(Nc3cc(C(F)(F)F)ccn3)C4)nc21 [Cmpd 231]
< 10 µM | FC(F)(F)c1ccc(N2CCC3(CCN(c4cncc(-c5nncs5)n4)CC3)C2)cn1 [Cmpd 233]

same assay, conditions: activation of GCase, EC50 ranges

SMILES | EC50
C[C@H]1CN(c2cnc3cnn(CC(F)F)c3n2)CC[C@@]12CCN(c1cccc(C(F)(F)F)n1)C2=O (racemic) [Cmpd 669] | 10 to 50 µM
FC(F)(F)c1cncc(N2CCC3(CCN(c4cncc(-c5nncs5)n4)CC3)C2)c1 [Cmpd 235] | 50 to 100 µM
O=C1CC2(CCN(c3cncc(-c4nncs4)n3)CC2)CN1c1ccc(C(F)(F)F)nc1 [Cmpd 236] | < 10 µM
FC(F)(F)c1ccc(N2CCC3(CCN(c4cncc(-n5ccnc5)n4)CC3)C2)cn1 [Cmpd 238] | 10 to 50 µM
FC(F)(F)COc1cncc(N2CCC3(CCN(c4ccc(C(F)(F)F)nc4)C3)CC2)n1 [Cmpd 243] | < 10 µM
O=C1N(c2cc(C(F)(F)F)ccn2)CCC12CCN(c1cncc(OCC(F)(F)F)n1)CC2 [Cmpd 244] | 10 to 50 µM
O=C1N(c2cc(C(F)(F)F)ccn2)CCC12CCN(c1cncc(N3CCCC3)n1)CC2 [Cmpd 245] | 10 to 50 µM
FC(F)(F)c1ccc(N2CCC3(CCN(c4cncc(N5CCCC5)n4)CC3)C2)cn1 [Cmpd 248] | < 10 µM
FC(F)(F)c1ccc(N2CCC3(CCN(c4cncc(N5CCOCC5)n4)CC3)C2)cn1 [Cmpd 249] | 10 to 50 µM
Cc1nn(CC(F)F)c2nc(N3CCC4(CC3)CC(=O)N(c3ccc(C(F)(F)F)nc3)C4)cnc12 [Cmpd 258] | < 10 µM

Second part, the compound after the results:

EC50 | SMILES
10 to 50 µM | FC(F)(F)c1ccc(N2CCC3(CCN(c4cncc(-c5nncs5)n4)CC3)C2)nc1 [Cmpd 234]
10 to 50 µM | O=C1CC2(CCN(c3cncc(-c4nncs4)n3)CC2)CN1c1cncc(C(F)(F)F)c1 [Cmpd 237]
< 10 µM | FC(F)(F)c1ccc(N2CCC3(CCN(c4cncc(-n5cccn5)n4)CC3)C2)cn1 [Cmpd 239]
50 to 100 µM | FC(F)(F)c1ccc(N2CCC3(CCN(c4nccn5cncc45)CC3)C2)cn1 [Cmpd 240]
10 to 50 µM | O=C1N(c2cc(C(F)(F)F)ccn2)CCC12CCN(c1cncc(-n3cccn3)n1)CC2 [Cmpd 241]
10 to 50 µM | O=C1N(c2cc(C(F)(F)F)ccn2)CCC12CCN(c1cncc(-n3ccnc3)n1)CC2 [Cmpd 242]
10 to 50 µM | O=C1N(c2cc(C(F)(F)F)ccn2)CCC12CCN(c1cncc(N3CCOCC3)n1)CC2 [Cmpd 246]
< 10 µM | O=C1N(c2ccc(C(F)(F)F)nc2)CC(c2ccccc2)C12CCN(c1cnc3cnn(CC(F)F)c3n1)CC2 (stereo not drawn) [Cmpd 247]
10 to 50 µM | Cc1nccn1-c1cncc(N2CCC3(CCN(c4ccc(C(F)(F)F)nc4)C3)CC2)n1 [Cmpd 250]
< 10 µM | FC(F)(F)c1ccc(N2CCC3(CCN(c4cncc(-c5ccccc5)n4)CC3)C2)cn1 [Cmpd 251]
10 to 50 µM | FC(F)(F)c1ccc(N2CCC3(CCN(c4cncc(-c5ncccn5)n4)CC3)C2)cn1 [Cmpd 252]
< 10 µM | FC(F)(F)c1ccc(N2CCC3(CCN(c4cncc(-n5cncn5)n4)CC3)C2)cn1 [Cmpd 253]
10 to 50 µM | CC(C)Oc1cncc(N2CCC3(CCN(c4ccc(C(F)(F)F)nc4)C3)CC2)n1 [Cmpd 254]
< 10 µM | FC(F)(F)c1ccc(N2CCC3(CCN(c4cncc(C(F)(F)F)n4)CC3)C2)cn1 [Cmpd 255]
< 10 µM | FC(F)(F)c1ccc(N2CCC3(CCN(c4cncc(N5CCCCC5)n4)CC3)C2)cn1 [Cmpd 256]
< 10 µM | Cc1nn(CC(F)F)c2nc(N3CCC4(CCN(c5ccc(C(F)(F)F)nc5)C4)CC3)cnc12 [Cmpd 257]
10 to 50 µM | FC(F)Cn1ncc2ncc(N3CCC4(CC3)CN(c3cc(C(F)(F)F)ccn3)c3ccccc34)nc21 [Cmpd 259]
< 10 µM | Cc1nn(CC(F)F)c2nc(N3CCC4(CC3)CCN(c3ccc(C(F)(F)F)nc3)C4=O)cnc12 [Cmpd 260]
10 to 50 µM | O=C1N(c2ccc(C(F)(F)F)nc2)c2ccccc2C12CCN(c1cnc3cnn(CC(F)F)c3n1)CC2 [Cmpd 261]

Source: patent publication US20250034170A1, “SMALL MOLECULE MODULATORS OF GLUCOCEREBROSIDASE ACTIVITY AND USES THEREOF” (Vanqua Bio, Inc., priority 2021, published 2025)
